From ChEMBL document CHEMBL4765403, “Augmentation of the antitumor effects of PARP inhibitors in triple-negative breast cancer via degradation by hydrophobic tagging modulation” (Eur J Med Chem, 2020)
Active and inactive are the calls of the source. The rule behind the calls is not given here.

Assays:
MDA-MB-231 [1] = test: Induction of autophagy in human MDA-MB-231 cells assessed as autophagosome, large double membrane-bound vesicles enclosing cytoplasmic components formation at 5 uM incubated for 24 to 48 hrs by transmission electron microscopy; type: functional, cell-based; details: time 24-48 hrs
MDA-MB-231 [2] = test: Cytotoxicity against triple-negative human MDA-MB-231 cells assessed as reduction in cell viability measured after 48 hrs by CCK8 assay; type: functional, cell-based; details: MDA-MB-231, 48 h
MDA-MB-231 [3] = test: Induction of endoplasmic reticulum stress in human MDA-MB-231 cells assessed as upregulation in ATF4 gene expression at 5 to 10 uM incubated for 24 to 48 hrs by RT-PCR analysis; type: functional, cell-based; details: dose 5-10 µM, time 24-48 hrs
[4] = target: Poly [ADP-ribose] polymerase 1 (Homo sapiens) (UniProt P09874); test: Induction of PARP1 degradation in human MDA-MB-231 cells assessed as fold change in PARP1 protein expression at 5 uM incubated for 48 hrs in presence of caspase I inhibitor, Ac-YVAD-cmk by Western blot analysis relative to control; type: cell-based
Chain of Poly [ADP-ribose] polymerase 1 (Homo sapiens) (P09874 whole entry): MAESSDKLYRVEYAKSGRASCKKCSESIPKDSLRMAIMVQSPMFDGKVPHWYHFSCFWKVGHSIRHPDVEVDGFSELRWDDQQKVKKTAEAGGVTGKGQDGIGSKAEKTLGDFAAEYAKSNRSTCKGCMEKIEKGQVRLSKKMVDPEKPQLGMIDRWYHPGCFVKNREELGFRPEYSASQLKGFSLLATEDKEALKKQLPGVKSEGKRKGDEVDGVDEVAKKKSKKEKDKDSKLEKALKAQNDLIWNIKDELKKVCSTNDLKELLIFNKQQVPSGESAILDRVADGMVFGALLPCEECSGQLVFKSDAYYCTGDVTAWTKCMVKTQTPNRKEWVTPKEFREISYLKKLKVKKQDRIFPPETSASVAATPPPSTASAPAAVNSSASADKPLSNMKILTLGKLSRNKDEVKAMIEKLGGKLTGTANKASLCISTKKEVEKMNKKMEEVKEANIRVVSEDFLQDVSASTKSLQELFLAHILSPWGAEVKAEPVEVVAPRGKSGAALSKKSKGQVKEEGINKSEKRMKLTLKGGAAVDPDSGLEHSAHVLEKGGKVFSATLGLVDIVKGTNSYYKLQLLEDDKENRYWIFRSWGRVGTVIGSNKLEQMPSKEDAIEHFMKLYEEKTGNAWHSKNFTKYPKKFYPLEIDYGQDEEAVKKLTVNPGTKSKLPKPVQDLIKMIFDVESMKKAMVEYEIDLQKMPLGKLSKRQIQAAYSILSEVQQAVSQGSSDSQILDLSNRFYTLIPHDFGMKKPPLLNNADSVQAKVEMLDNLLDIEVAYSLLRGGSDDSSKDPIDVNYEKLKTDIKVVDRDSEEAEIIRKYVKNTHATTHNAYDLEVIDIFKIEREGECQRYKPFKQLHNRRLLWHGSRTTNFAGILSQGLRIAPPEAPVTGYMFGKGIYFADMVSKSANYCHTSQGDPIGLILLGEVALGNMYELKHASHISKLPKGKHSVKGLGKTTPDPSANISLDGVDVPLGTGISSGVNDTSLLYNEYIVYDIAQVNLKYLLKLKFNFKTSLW

[5] = target: Poly [ADP-ribose] polymerase 1 (Homo sapiens) (UniProt P09874); test: Induction of PARP1 degradation in human HCC1937 cells harboring BRCA mutation assessed as fold change in PARP1 protein expression at 5 uM incubated for 48 hrs by Western blot analysis relative to control; type: cell-based
MDA-MB-468 [6] = test: Induction of endoplasmic reticulum stress in human MDA-MB-468 cells assessed as increase in XBP-1s protein expression at 5 uM incubated for 48 hrs by Western blot analysis; type: functional, cell-based
[7] = target: Poly [ADP-ribose] polymerase 1 (Homo sapiens) (UniProt P09874); test: Induction of PARP1 degradation in human HCC1937 cells harboring BRCA mutation assessed as fold change in PARP1 protein expression at 5 uM incubated for 24 hrs by Western blot analysis relative to control; type: cell-based
[8] = target: Poly [ADP-ribose] polymerase 1 (Homo sapiens) (UniProt P09874); test: Induction of PARP1 degradation in human MDA-MB-468 cells assessed as fold change in PARP1 protein expression at 5 uM pretreated for 2 hrs with pan-caspase inhibitor, Z-VAD-FMK followed by incubation with compound for 48 hrs by Western blot analysis relative to control; type: cell-based
[9] = target: Poly [ADP-ribose] polymerase 1 (Homo sapiens) (UniProt P09874); test: Induction of PARP1 degradation in human MDA-MB-231 cells at 5 uM pretreated for 2 hrs with proteasome inhibitor, carfilzomib for 2 hrs followed by incubation with compound for 48 hrs by immunoblotting analysis; type: cell-based
[10] = target: Poly [ADP-ribose] polymerase 1 (Homo sapiens) (UniProt P09874); test: Induction of PARP1 degradation in triple-negative human MDA-MB-231 cells assessed as fold change in PARP1 protein expression at 0.5 uM incubated for 48 hrs by Western blot analysis relative to control; type: cell-based
[11] = target: Poly [ADP-ribose] polymerase 1 (Homo sapiens) (UniProt P09874); test: Induction of PARP1 degradation in human MDA-MB-468 cells at 5 uM incubated for 48 hrs in presence 5 uM PARP1 inhibitor olaparib by Western blot analysis; type: cell-based
[12] = target: Poly [ADP-ribose] polymerase 1 (Homo sapiens) (UniProt P09874); test: Induction of PARP1 degradation in human MDA-MB-468 cells assessed as fold change in PARP1 protein expression at 5 uM incubated for 48 hrs in presence of pan-caspase inhibitor, Z-VAD-FMK by Western blot analysis; type: cell-based
MDA-MB-231 [13] = test: Induction of apoptosis in human MDA-MB-231 cells assessed as increase in cytochrome C protein expression at 5 uM incubated for 24 to 48 hrs by Western blot analysis; type: functional, cell-based; details: time 24-48 hrs
MDA-MB-231 [14] = test: Induction of endoplasmic reticulum stress in human MDA-MB-231 cells assessed as upregulation in CHOP gene expression at 5 to 10 uM incubated for 24 to 48 hrs by RT-PCR analysis; type: functional, cell-based; details: dose 5-10 µM, time 24-48 hrs
MDA-MB-231 [15] = test: Induction of apoptosis in human MDA-MB-231 cells assessed as upregulation in p21 gene expression at 5 to 10 uM incubated for 24 to 48 hrs by RT-PCR analysis; type: functional, cell-based; details: dose 5-10 µM, time 24-48 hrs
[16] = target: Poly [ADP-ribose] polymerase 1 (Homo sapiens) (UniProt P09874); test: Induction of PARP1 degradation in human MDA-MB-231 cells at 5 uM incubated for 48 hrs in presence of proteasome inhibitor, carfilzomib by immunoblotting analysis; type: cell-based
[17] = target: Poly [ADP-ribose] polymerase 1 (Homo sapiens) (UniProt P09874); test: Induction of PARP1 degradation in human MDA-MB-231 cells at 5 uM pretreated for 2 hrs with proteasome inhibitor, bortezomib for 2 hrs followed by incubation with compound for 48 hrs by immunoblotting analysis; type: cell-based
[18] = target: Poly [ADP-ribose] polymerase 1 (Homo sapiens) (UniProt P09874); test: Induction of PARP1 degradation in human MDA-MB-231 cells assessed as fold change in PARP1 protein expression at 5 uM pretreated for 2 hrs with pan-caspase inhibitor, Z-VAD-FMK followed by incubation with compound for 48 hrs by Western blot analysis relative to control; type: cell-based
MDA-MB-231 [19] = test: Induction of apoptosis in human MDA-MB-231 cells assessed as upregulation in PUMA gene expression at 5 to 10 uM incubated for 24 to 48 hrs by RT-PCR analysis; type: functional, cell-based; details: dose 5-10 µM, time 24-48 hrs
[20] = target: Poly [ADP-ribose] polymerase 1 (Homo sapiens) (UniProt P09874); test: Induction of PARP1 degradation in triple-negative human MDA-MB-231 cells assessed as fold change in PARP1 protein expression at 2.5 uM incubated for 24 hrs by Western blot analysis relative to control; type: cell-based
[21] = target: Poly [ADP-ribose] polymerase 1 (Homo sapiens) (UniProt P09874); test: Induction of PARP1 degradation in triple-negative human MDA-MB-231 cells assessed as fold change in PARP1 protein expression at 1 uM incubated for 48 hrs by Western blot analysis relative to control; type: cell-based
[22] = target: Poly [ADP-ribose] polymerase 1 (Homo sapiens) (UniProt P09874); test: Induction of PARP1 degradation in triple-negative human MDA-MB-231 cells assessed as fold change in PARP1 protein expression at 0.1 uM incubated for 24 hrs by Western blot analysis relative to control; type: cell-based
MDA-MB-231 [23] = test: Cytotoxicity against human MDA-MB-231 cells assessed as reduction in cell growth at 5 uM measured after 96 hrs by CCK8 assay relative to control; type: functional
MDA-MB-468 [24] = test: Cytotoxicity against human MDA-MB-468 cells assessed as reduction in cell viability measured after 96 hrs by CCK8 assay; type: functional, cell-based; details: MDA-MB-468, 96 h
[25] = target: Poly [ADP-ribose] polymerase 1 (Homo sapiens) (UniProt P09874); test: Induction of PARP1 degradation in triple negative human MDA-MB-231 cells assessed as fold change in PARP1 protein expression at 5 uM incubated for 48 hrs by Western blot analysis relative to control; type: cell-based
[26] = target: Poly [ADP-ribose] polymerase 1 (Homo sapiens) (UniProt P09874); test: Induction of PARP1 degradation in triple-negative human MDA-MB-231 cells assessed as fold change in PARP1 protein expression at 0.01 uM incubated for 24 hrs by Western blot analysis relative to control; type: cell-based
[27] = target: Poly [ADP-ribose] polymerase 1 (Homo sapiens) (UniProt P09874); test: Induction of PARP1 degradation in triple-negative human MDA-MB-231 cells assessed as fold change in PARP1 protein expression at 0.01 uM incubated for 48 hrs by Western blot analysis relative to control; type: cell-based
MDA-MB-231 [28] = test: Cytotoxicity against human MDA-MB-231 cells assessed as reduction in cell viability measured after 96 hrs by CCK8 assay; type: functional, cell-based; details: MDA-MB-231, 96 h
[29] = target: Poly [ADP-ribose] polymerase 1 (Homo sapiens) (UniProt P09874); test: Induction of PARP1 degradation in human MDA-MB-231 cells assessed as fold change in PARP1 protein expression at 5 uM incubated for 48 hrs in presence of pan-caspase inhibitor, Z-VAD-FMK by Western blot analysis; type: cell-based
[30] = target: Poly [ADP-ribose] polymerase 1 (Homo sapiens) (UniProt P09874); test: Induction of PARP1 degradation in human MDA-MB-231 cells at 2.5 uM incubated for 48 hrs by Western blot analysis relative to control; type: cell-based
[31] = target: Poly [ADP-ribose] polymerase 1 (Homo sapiens) (UniProt P09874); test: Induction of PARP1 degradation in triple-negative human MDA-MB-231 cells assessed as fold change in PARP1 protein expression at 2.5 uM incubated for 48 hrs by Western blot analysis relative to control; type: cell-based

fold change (FC) [4]: 0.3
fold change (FC) [5]: 0
fold change (FC) [7]: 0.3
fold change (FC) [8]: 0.4
Activity [9]: inactive
fold change (FC) [10]: 0.6
Activity [11]: inactive
fold change (FC) [12]: 0.4
Activity [16]: inactive
Activity [17]: inactive
fold change (FC) [18]: 0.3
fold change (FC) [20]: 0.8
fold change (FC) [21]: 0.7
fold change (FC) [22]: 0.9
fold change (FC) [25]: 0.1
fold change (FC) [26]: 0.9
fold change (FC) [27]: 0.7
fold change (FC) [29]: 0.3
Activity [30]: 60%
fold change (FC) [31]: 0.1
Compound: O=C(CC1c2ccccc2-c2ccccc21)N1CCN(C(=O)c2cc(Cc3n[nH]c(=O)c4ccccc34)ccc2F)CC1
Activity (MDA-MB-231 [1]): Active
IC50 (MDA-MB-231 [2]): 10.6 µM
Activity (MDA-MB-231 [3]): Active
Activity (MDA-MB-468 [6]): Active
Activity (MDA-MB-231 [13]): Active
Activity (MDA-MB-231 [14]): Active
Activity (MDA-MB-231 [15]): Active
Activity (MDA-MB-231 [19]): Active
inhibition at 5 µM (MDA-MB-231 [23]): 80%
IC50 (MDA-MB-468 [24]): 5.72 µM
IC50 (MDA-MB-231 [28]): 2.1 µM
